Experimental data as given in patent publication US20230310352A1, “NOVEL COMPOSITIONS AND METHODS FOR THE TREATMENT OF LUNG FIBROSIS” (LAURENT PHARMACEUTICALS INC., priority 2020, published 2023).
Entries after “also recorded” stand apart in the source; their conditions may differ.

Experiments:
[1] = system: Normal human lung fibroblast cells (NHLF cells, ATCC CRL-7000); assay: Pro-collagen 1A1 protein by ELISA after TGF-β1 exposure in NHLF; assay type: cell-based; conditions: TGF-β1 2 ng/mL + fenretinide 1, 2, 3, 4 μM, 3 days
Method: NHLF cells were incubated for 3 days at 37° C. and treated with TGF-β1 (2 ng/mL) or TGF-β1 (2 ng/mL)+Fenretinide (1, 2, 3, 4 μM). At the end of the 3 day-treatment period, media was collected in identified tubes, centrifuged at 2,000 g for 20 minutes and stored at −80° C. Cells were collected using trypsin, transferred in identified tubes and centrifuged at 1,000 g for 5 minutes. Cells were then washed twice in PBS 1X prior to be resuspended in ELISA lysis buffer. Pro-collagen 1A1 protein contents were determined using Abcam ELISA detection kit (Ab210966). Experiment performed in quadruplicate.

[2] = system: lung fibroblast-populated long microtissue; assay: Lung fibroblast-populated long microtissue, model of traction bronchiectasis; assay type: cell-based, human
Source text: In a fibrotic lung, traction bronchiectasis occurs when small bronchial openings dilate due to traction force exerted by the surrounding fibrotic tissue. To model this unique fibrosis feature of the lung, stress concentrations were patterned to induce the dilation of tissue openings in the engineered microtissues described in Example 2. In order to further increase local stress levels, rigid micropillars were designed to support the long microtissue. In order to experimentally model the mechanical process of traction bronchiectasis, lung fibroblast-populated long microtissue was induced to fibrosis using TGF-β1 treatment (5 ng/ml). Continuous TGF-β1 treatment for 6 days induced increased expression of α-SMA and pro-collagen type 1 across the entire microtissue, in addition to dilated tissue openings around the micropillars. These effects were absent in untreated conditions. To examine the effects of fenretinide (2 μM and 4 μM doses) in inhibiting traction bronchiectasis, fenretinide was co-administered with TGF-β1 at the beginning of long microtissue culture and remained for 6 days. The unique geometry of the long microtissue allows tissue opening (hole) formation around micropillars under elevated contractile force generated by the differentiated myofibroblasts, mimicking the traction bronchiectasis. […] FIG. 9 presents the quantified opening area/total tissue area ratio.

[3] = system: human lung microtissues; assay: Immunostaining of fibrotic markers (α-SMA, pro-collagen type 1) in TGF-β1 fibrosis-induced 3D lung microtissues; assay type: cell-based
Source text: To confirm the findings of the NHLF cells, the effects of fenretinide administration was observed on a newly developed in vitro model arrays of 3D microtissues that are suspended over multiple flexible micropillars. Progression of lung fibrosis is characterized by stiffening of the membranous tissue that makes up the alveolar air sacs, caused by the accumulation of highly contractile and collagen-producing myofibroblasts. To model the physio-pathological characteristics of lung fibrosis in vitro, different experimental systems have been developed. Planar 2D culture-based assays offer multiparameter readout of fibrotic cellular markers, but they have very limited capacity to measure or reproduce tissue mechanics. In order to recapitulate dynamic changes in tissue mechanics during fibrogenesis, a newly validated membranous human lung microtissues array was used, that models key biomechanical events occurred during lung fibrogenesis, including progressive stiffening and contraction of alveolar tissue, decline in alveolar tissue compliance, and traction force-induced bronchial dilation. This new 3D array of membranous lung microtissues model of lung fibrosis had been validated using two FDA-approved antifibrosis drugs, pirfenidone and nintedanib. This model was further extended to larger lung tissue arrays, to mimic the traction on alveoli as a model of bronchiectasis. (Asmani M. et al, 2018, Nature Com, 9:2066)
The lung microtissue chip system used is based on bio-MEMS technology that can assemble 3D cell-populated submillimeter microtissues in arrays of polydimethylsiloxane (PDMS) microwells. In each microwell, human lung fibroblasts or epithelial cells spontaneously contract and assemble the matrix proteins, such as collagen, into microtissues that anchor on top of an array of micropillars. The flexible micropillars serve as in situ force sensors that can report the contractile force generated by the tissue. […]
These observations are further described in Table 1, which presents fenretinide induced reduction of alpha smooth muscle actin (α-SMA) and pro-collagen expression and contractile forces induced by TGF-β1 in lung microtissue in preventative and therapeutic treatment measured as a percentage.

[4] = system: Cftr.KO mice; conditions: cited from earlier work
[5] = system: VEGF; assay: Mouse model of LPS-induced acute respiratory distress syndrome, BALF VEGF; assay type: in vivo; conditions: inhaled fenretinide, LPS-induced ARDS mouse model
[6] = system: Normal human lung fibroblast cells (NHLF cells, ATCC CRL-7000); assay: COL1A1 mRNA transcript by qRT-PCR after TGF-β1 exposure in NHLF; assay type: cell-based; conditions: TGF-β1 2 ng/mL + fenretinide 1, 2, 3, 4 μM, 3 days
Method: NHLF cells were incubated for 3 days at 37° C. and treated with TGF-β1 (2 ng/mL) or TGF-β1 (2 ng/mL)+Fenretinide (1, 2, 3, 4 μM). At the end of the 3 day-treatment period, media was removed using a vacuum pump and total RNA was isolated using the TriReagent protocol (BioShop) and cDNA was obtained by reverse transcription using the SUPERSCRIPT® VILO®. COL1A1 transcript levels were determined by qRT-PCR using the Fast SyBR Master Mix and specific probes, and quantified following the ΔΔCT, normalized to PUM-1 expression as internal control. The experiments were performed in quadruplicate.

[7] = preventative treatment, 2 μM, 6 days
[8] = preventative treatment, 4 μM, 6 days
[9] = preventative, co-administered with TGF-β1 5 ng/ml for 6 days, 2 μM and 4 μM
[10] = therapeutic treatment, added day 3 to day 6, 2 μM
[11] = therapeutic treatment, added day 3 to day 6, 4 μM

SMILES: CC1=C(/C=C/C(C)=C/C=C/C(C)=C/C(=O)Nc2ccc(O)cc2)C(C)(C)CCC1 [fenretinide, 4-hydroxyphenyl retinamide]
- induction of Pro-collagen 1A1 protein levels (ELISA) [1]: attenuate and, at certain doses, completely abolish; also recorded: dose-dependent attenuation
- induction of Pro-collagen 1A1 protein levels (ELISA) ([1]; listed as Fenretinide): dose-dependent attenuation
- expression level of α-SMA in the long microtissue ([2]; TGF-β1 5 ng/ml, 6 days, 4 μM): strongly inhibited
- pro-collagen expression in the long microtissue ([2]; TGF-β1 5 ng/ml, 6 days, 4 μM): a similar trend
- tissue openings around micropillars (traction bronchiectasis) ([2]; co-administered with TGF-β1 5 ng/ml for 6 days, 2 μM and 4 μM): tissue openings remained small
- pro-collagen, reduction of expression induced by TGF-β1, percentage change [3, 7]: 88.0%
- α-SMA, reduction of expression induced by TGF-β1, percentage change [3, 7]: 45.0%
- pro-collagen, reduction of expression induced by TGF-β1, percentage change [3, 8]: 81.0%
- α-SMA, reduction of expression induced by TGF-β1, percentage change [3, 8]: 37.0%
- expression of pro-collagen type 1 (fluorescent intensity) [3, 9]: increasingly inhibited by increasing fenretinide concentrations
- expression of α-SMA (fluorescent intensity) [3, 9]: increasingly inhibited by increasing fenretinide concentrations
- pro-collagen, reduction of expression induced by TGF-β1, percentage change [3, 10]: 39.0%
- α-SMA, reduction of expression induced by TGF-β1, percentage change [3, 10]: 56.0%
- pro-collagen, reduction of expression induced by TGF-β1, percentage change [3, 11]: 58.0%
- α-SMA, reduction of expression induced by TGF-β1, percentage change [3, 11]: 72.0%
- levels of DHA and AA and sphingolipids imbalance in the lungs and plasma [4]: correct the levels
- lung inflammation [4]: reduction
- pulmonary load of Pseudomonas aeruginosa [4]: significant decrease
- bronchoalveolar lavage fluid (BALF) VEGF [5]: significant increase
- induction of fibrotic marker COL1A1 gene expression (qRT-PCR) [6]: attenuates, in a dose-dependent manner; also recorded: dose-dependent attenuation
